{
  "source": "paper PMC5290327",
  "about": "“SC83288 is a clinical development candidate for the treatment of severe malaria” (Nature Communications, 2017)",
  "experiment_in_all_cases": "KINOMEscan",
  "assay_type_in_all_cases": "binding",
  "conditions_in_all_cases": "read-out: Remaining enzyme activity",
  "key": {"BIKE": {"target": "T1, BIKE (Homo sapiens, UniProt Q9NSY1)", "T1 construct": "purchased Ambit (DiscoverX) KINOMEscan; Cerep", "in_short": "(§1)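 qPCR of a DNA tag reports how much kinase stays bound to ligand-coated beads in the presence of 10 μM SC81458, diluted from a DMSO stock. Kinase sources were T7 phage lysates from E. coli or HEK-293-expressed protein tagged with DNA.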"}, "MYO3a": {"target": "T2, MYO3a (Homo sapiens, UniProt Q8NEV4)", "T2 construct": "purchased Ambit (DiscoverX) KINOMEscan; Cerep", "in_short": "as §1"}, "PIK3CA": {"target": "T3, PIK3CA (Homo sapiens, UniProt P42336)", "T3 construct": "purchased Ambit (DiscoverX) KINOMEscan; Cerep", "in_short": "as §1"}, "DRAK2": {"target": "T4, DRAK2 (Homo sapiens, UniProt O94768)", "T4 construct": "purchased Ambit (DiscoverX) KINOMEscan; Cerep", "in_short": "as §1"}, "p38-gamma": {"target": "T5, p38-gamma (Homo sapiens, UniProt P53778)", "T5 construct": "purchased Ambit (DiscoverX) KINOMEscan; Cerep", "in_short": "as §1"}, "CDKL3": {"target": "T6, CDKL3 (Homo sapiens, UniProt Q8IVW4)", "T6 construct": "purchased Ambit (DiscoverX) KINOMEscan; Cerep", "in_short": "as §1"}, "AURKC": {"target": "T7, AURKC (Homo sapiens, UniProt Q9UQB9)", "T7 construct": "purchased Ambit (DiscoverX) KINOMEscan; Cerep", "in_short": "as §1"}, "MST3": {"target": "T8, MST3 (Homo sapiens, UniProt Q9Y6E0)", "T8 construct": "purchased Ambit (DiscoverX) KINOMEscan; Cerep", "in_short": "as §1"}, "EGFR": {"target": "T9, EGFR (Homo sapiens, UniProt P00533)", "T9 construct": "purchased Ambit (DiscoverX) KINOMEscan; Cerep", "in_short": "as §1"}, "EPHA6": {"target": "T10, EPHA6 (Homo sapiens, UniProt Q9UF33)", "T10 construct": "purchased Ambit (DiscoverX) KINOMEscan; Cerep", "T10 sequence (Q9UF33 23-1036)": "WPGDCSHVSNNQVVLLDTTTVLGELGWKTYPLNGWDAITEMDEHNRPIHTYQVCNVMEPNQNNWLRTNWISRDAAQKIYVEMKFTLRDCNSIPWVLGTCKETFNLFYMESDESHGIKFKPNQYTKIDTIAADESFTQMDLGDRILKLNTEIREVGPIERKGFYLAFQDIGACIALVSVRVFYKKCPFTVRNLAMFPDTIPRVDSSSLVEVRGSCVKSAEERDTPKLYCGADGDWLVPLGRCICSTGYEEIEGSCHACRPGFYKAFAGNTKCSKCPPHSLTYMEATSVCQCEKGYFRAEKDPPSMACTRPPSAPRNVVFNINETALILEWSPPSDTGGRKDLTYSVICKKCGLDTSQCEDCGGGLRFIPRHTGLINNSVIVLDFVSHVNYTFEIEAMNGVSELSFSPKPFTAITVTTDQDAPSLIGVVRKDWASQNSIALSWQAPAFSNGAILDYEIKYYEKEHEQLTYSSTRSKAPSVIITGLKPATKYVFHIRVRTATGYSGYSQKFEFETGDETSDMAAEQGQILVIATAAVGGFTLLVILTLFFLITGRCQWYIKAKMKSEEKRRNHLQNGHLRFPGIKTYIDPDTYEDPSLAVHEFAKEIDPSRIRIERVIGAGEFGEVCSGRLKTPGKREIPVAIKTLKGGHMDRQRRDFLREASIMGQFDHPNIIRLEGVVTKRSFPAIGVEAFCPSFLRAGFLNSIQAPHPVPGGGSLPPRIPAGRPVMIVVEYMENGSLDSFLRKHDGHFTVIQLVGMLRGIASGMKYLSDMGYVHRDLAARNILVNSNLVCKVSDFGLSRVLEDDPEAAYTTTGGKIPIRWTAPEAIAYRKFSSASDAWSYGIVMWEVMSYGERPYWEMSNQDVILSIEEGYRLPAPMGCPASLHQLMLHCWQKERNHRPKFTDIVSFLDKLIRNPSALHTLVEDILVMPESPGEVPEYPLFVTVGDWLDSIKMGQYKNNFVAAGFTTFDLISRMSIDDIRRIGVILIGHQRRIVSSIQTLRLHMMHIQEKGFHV", "in_short": "as §1"}, "MYLK2": {"target": "T11, MYLK2 (Homo sapiens, UniProt Q9H1R3)", "T11 construct": "purchased Ambit (DiscoverX) KINOMEscan; Cerep", "in_short": "as §1"}, "NDR1": {"target": "T12, NDR1 (Homo sapiens, UniProt Q15208)", "T12 construct": "purchased Ambit (DiscoverX) KINOMEscan; Cerep", "in_short": "as §1"}, "MAP3K1": {"target": "T13, MAP3K1 (Homo sapiens, UniProt Q13233)", "T13 construct": "purchased Ambit (DiscoverX) KINOMEscan; Cerep", "in_short": "as §1"}, "PCTK2": {"target": "T14, PCTK2 (Homo sapiens, UniProt Q00537)", "T14 construct": "purchased Ambit (DiscoverX) KINOMEscan; Cerep", "in_short": "as §1"}, "DYRK1a": {"target": "T15, DYRK1a (Homo sapiens, UniProt Q13627)", "T15 construct": "purchased Ambit (DiscoverX) KINOMEscan; Cerep", "in_short": "as §1"}, "ZAK": {"target": "T16, ZAK (Homo sapiens, UniProt Q9NYL2)", "T16 construct": "purchased Ambit (DiscoverX) KINOMEscan; Cerep", "in_short": "as §1"}, "FGR": {"target": "T17, FGR (Homo sapiens, UniProt P09769)", "T17 construct": "purchased Ambit (DiscoverX) KINOMEscan; Cerep", "in_short": "as §1"}, "[1]": {"target": "T18, RPS6KA4(Kin.Dom.1-N-term) (Homo sapiens, UniProt O75676)", "T18 construct": "RPS6KA4(Kin.Dom.1-N-term); purchased Ambit (DiscoverX) KINOMEscan; Cerep", "T18 sequence (O75676 33-301 limits assumed)": "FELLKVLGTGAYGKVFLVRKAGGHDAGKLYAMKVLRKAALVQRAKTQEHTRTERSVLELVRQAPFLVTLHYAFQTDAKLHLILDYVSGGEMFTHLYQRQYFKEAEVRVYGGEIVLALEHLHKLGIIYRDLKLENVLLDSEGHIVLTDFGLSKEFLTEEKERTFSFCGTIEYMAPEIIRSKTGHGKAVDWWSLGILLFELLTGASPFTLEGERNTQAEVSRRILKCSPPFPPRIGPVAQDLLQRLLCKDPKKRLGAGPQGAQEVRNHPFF", "in_short": "as §1"}, "WEE1": {"target": "T19, WEE1 (Homo sapiens, UniProt P30291)", "T19 construct": "purchased Ambit (DiscoverX) KINOMEscan; Cerep", "in_short": "as §1"}, "p38-alpha": {"target": "T20, p38-alpha (Homo sapiens, UniProt Q16539)", "T20 construct": "purchased Ambit (DiscoverX) KINOMEscan; Cerep", "in_short": "as §1"}, "PRP4": {"target": "T21, PRP4 (Homo sapiens, UniProt Q13523)", "T21 construct": "purchased Ambit (DiscoverX) KINOMEscan; Cerep", "in_short": "as §1"}, "SgK085": {"target": "T22, SgK085 (Homo sapiens, UniProt Q86YV6)", "T22 construct": "purchased Ambit (DiscoverX) KINOMEscan; Cerep", "in_short": "as §1"}, "EPHA1": {"target": "T23, EPHA1 (Homo sapiens, UniProt P21709)", "T23 construct": "purchased Ambit (DiscoverX) KINOMEscan; Cerep", "in_short": "as §1"}, "TGFBR1": {"target": "T24, TGFBR1 (Homo sapiens, UniProt P36897)", "T24 construct": "purchased Ambit (DiscoverX) KINOMEscan; Cerep", "T24 sequence (P36897 34-503)": "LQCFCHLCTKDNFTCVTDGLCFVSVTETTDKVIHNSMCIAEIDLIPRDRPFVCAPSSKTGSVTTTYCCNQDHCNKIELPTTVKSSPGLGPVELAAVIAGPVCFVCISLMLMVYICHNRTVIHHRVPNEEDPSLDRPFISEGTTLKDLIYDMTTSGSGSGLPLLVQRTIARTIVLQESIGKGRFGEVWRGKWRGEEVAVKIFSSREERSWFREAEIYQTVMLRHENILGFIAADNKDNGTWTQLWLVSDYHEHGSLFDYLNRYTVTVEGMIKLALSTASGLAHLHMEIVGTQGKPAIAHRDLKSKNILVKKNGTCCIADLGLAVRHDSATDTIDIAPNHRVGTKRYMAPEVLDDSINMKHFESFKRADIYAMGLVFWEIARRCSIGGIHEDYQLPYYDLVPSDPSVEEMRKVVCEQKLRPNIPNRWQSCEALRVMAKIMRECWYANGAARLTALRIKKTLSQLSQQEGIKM", "in_short": "as §1"}, "PAK2": {"target": "T25, PAK2 (Homo sapiens, UniProt Q13177)", "T25 construct": "purchased Ambit (DiscoverX) KINOMEscan; Cerep", "in_short": "as §1"}, "DAPK1": {"target": "T26, DAPK1 (Homo sapiens, UniProt P53355)", "T26 construct": "purchased Ambit (DiscoverX) KINOMEscan; Cerep", "in_short": "as §1"}, "PIK3CA(E542K)": {"target": "T27, PIK3CA(E542K) (Homo sapiens, UniProt P42336, E542K)", "T27 construct": "purchased Ambit (DiscoverX) KINOMEscan; Cerep", "T27 sequence (P42336 whole entry E542K)": "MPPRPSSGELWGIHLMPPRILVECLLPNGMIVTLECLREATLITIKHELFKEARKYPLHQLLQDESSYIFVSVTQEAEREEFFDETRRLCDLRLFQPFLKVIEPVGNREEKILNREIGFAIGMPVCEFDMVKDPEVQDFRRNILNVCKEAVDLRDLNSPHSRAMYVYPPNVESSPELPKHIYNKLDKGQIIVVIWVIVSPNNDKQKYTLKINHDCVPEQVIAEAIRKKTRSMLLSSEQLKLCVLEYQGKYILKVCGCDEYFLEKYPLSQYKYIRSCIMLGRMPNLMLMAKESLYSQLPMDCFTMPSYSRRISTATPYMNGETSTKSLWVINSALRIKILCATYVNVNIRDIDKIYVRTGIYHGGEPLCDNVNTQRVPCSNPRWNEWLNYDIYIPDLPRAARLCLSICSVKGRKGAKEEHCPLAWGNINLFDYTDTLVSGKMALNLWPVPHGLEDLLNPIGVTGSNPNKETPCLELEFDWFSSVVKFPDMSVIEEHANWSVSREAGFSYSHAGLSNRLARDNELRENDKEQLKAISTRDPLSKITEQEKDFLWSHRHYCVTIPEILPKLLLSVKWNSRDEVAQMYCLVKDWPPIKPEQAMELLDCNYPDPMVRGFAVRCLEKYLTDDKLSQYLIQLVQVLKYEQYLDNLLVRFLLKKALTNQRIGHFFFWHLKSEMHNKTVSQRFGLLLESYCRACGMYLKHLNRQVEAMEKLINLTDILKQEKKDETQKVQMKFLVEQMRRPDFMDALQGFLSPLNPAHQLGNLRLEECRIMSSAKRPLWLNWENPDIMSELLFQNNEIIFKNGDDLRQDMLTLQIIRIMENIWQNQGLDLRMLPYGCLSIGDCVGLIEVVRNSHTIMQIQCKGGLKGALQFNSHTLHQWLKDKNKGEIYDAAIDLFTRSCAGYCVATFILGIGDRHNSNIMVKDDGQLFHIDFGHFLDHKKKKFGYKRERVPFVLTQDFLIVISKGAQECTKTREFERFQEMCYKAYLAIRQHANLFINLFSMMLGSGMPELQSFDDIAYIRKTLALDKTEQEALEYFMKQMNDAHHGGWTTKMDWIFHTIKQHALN", "in_short": "as §1"}, "ADCK3": {"target": "T28, ADCK3 (Homo sapiens, UniProt Q8NI60)", "T28 construct": "purchased Ambit (DiscoverX) KINOMEscan; Cerep", "in_short": "as §1"}, "MAP3K15": {"target": "T29, MAP3K15 (Homo sapiens, UniProt Q6ZN16)", "T29 construct": "purchased Ambit (DiscoverX) KINOMEscan; Cerep", "in_short": "as §1"}, "YANK2": {"target": "T30, YANK2 (Homo sapiens, UniProt Q9NY57)", "T30 construct": "purchased Ambit (DiscoverX) KINOMEscan; Cerep", "in_short": "as §1"}, "PRKD1": {"target": "T31, PRKD1 (Homo sapiens, UniProt Q15139)", "T31 construct": "purchased Ambit (DiscoverX) KINOMEscan; Cerep", "in_short": "as §1"}, "PIK3CA(E545K)": {"target": "T32, PIK3CA(E545K) (Homo sapiens, UniProt P42336, E545K)", "T32 construct": "purchased Ambit (DiscoverX) KINOMEscan; Cerep", "T32 sequence (P42336 whole entry E545K)": "as the sequence (P42336 whole entry E542K) above, with K542E, E545K counted along it", "in_short": "as §1"}, "PRKCE": {"target": "T33, PRKCE (Homo sapiens, UniProt Q02156)", "T33 construct": "purchased Ambit (DiscoverX) KINOMEscan; Cerep", "T33 sequence (Q02156 whole entry)": "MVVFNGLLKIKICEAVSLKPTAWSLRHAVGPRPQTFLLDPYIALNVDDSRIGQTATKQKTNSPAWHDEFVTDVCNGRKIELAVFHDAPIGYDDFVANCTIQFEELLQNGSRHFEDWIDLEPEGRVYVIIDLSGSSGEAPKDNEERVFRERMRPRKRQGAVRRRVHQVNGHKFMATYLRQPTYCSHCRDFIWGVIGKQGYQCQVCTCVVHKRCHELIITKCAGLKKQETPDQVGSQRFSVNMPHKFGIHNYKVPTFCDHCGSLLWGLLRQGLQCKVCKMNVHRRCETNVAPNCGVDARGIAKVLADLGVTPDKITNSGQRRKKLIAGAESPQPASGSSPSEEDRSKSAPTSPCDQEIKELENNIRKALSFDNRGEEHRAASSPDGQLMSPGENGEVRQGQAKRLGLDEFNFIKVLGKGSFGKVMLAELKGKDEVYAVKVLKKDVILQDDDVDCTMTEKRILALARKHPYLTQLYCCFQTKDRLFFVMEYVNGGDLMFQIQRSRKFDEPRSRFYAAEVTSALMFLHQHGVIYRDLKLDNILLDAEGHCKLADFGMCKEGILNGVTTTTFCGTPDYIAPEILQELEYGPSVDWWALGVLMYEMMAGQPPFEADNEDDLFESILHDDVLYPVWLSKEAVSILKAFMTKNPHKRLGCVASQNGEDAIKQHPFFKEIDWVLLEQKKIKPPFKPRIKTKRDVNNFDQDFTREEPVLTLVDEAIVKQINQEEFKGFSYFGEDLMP", "in_short": "as §1"}, "ROCK1": {"target": "T34, ROCK1 (Homo sapiens, UniProt Q13464)", "T34 construct": "purchased Ambit (DiscoverX) KINOMEscan; Cerep", "T34 sequence (Q13464 whole entry)": "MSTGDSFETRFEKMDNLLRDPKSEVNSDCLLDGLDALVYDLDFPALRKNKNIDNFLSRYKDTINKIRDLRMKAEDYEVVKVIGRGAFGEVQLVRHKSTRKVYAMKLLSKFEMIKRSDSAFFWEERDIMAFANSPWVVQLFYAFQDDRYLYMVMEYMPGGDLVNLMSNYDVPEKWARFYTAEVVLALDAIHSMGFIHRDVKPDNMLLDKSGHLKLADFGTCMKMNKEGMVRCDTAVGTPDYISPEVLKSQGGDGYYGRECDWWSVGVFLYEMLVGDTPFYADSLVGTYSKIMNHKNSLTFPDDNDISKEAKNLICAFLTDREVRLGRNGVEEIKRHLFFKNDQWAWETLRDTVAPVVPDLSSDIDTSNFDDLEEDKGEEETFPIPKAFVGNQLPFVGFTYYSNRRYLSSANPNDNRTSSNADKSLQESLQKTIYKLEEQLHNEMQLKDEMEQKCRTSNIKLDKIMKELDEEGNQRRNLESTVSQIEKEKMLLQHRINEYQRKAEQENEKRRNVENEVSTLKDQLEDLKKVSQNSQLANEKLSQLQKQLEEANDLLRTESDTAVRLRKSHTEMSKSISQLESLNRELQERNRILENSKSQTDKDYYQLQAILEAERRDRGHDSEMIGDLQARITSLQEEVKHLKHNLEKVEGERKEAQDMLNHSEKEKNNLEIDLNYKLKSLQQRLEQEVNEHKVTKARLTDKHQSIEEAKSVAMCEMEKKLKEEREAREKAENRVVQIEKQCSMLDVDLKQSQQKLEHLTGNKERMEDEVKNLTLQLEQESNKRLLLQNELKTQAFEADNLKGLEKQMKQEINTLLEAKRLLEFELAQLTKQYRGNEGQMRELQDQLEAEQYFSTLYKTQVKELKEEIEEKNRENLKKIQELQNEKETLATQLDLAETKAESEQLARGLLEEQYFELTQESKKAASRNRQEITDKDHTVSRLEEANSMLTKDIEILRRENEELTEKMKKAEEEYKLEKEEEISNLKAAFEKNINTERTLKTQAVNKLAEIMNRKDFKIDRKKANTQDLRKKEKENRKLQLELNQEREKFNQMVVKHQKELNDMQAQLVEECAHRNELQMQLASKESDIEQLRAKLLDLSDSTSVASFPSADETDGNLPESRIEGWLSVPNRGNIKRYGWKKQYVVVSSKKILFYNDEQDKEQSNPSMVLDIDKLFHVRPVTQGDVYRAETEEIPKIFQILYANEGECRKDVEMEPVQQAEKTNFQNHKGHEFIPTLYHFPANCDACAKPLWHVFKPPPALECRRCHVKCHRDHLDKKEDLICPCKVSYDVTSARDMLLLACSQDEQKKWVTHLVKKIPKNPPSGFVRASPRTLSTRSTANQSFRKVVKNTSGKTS", "in_short": "as §1"}},
  "data": [
    {"smiles": "CCCCN1CCN(C(=N)c2cccc(NC(=O)Nc3ccc(S(=O)(=O)NCc4ccc(S(N)(=O)=O)cc4)cc3)c2)CC1", "note": "[SC81458, 4-(3-(3-((4-butylpiperazin-1-yl)(imino)methyl)phenyl)ureido)-N-(4-sulfamoylbenzyl) benzenesulfonamide]", "values": [
      {"measurement": "remaining binding at 10 µM", "setting": "BIKE", "value": 85, "unit": "%"},
      {"measurement": "remaining binding at 10 µM", "setting": "MYO3a", "value": 100, "unit": "%"},
      {"measurement": "remaining binding at 10 µM", "setting": "PIK3CA", "value": 83, "unit": "%"},
      {"measurement": "remaining binding at 10 µM", "setting": "DRAK2", "value": 88, "unit": "%"},
      {"measurement": "remaining binding at 10 µM", "setting": "p38-gamma", "value": 85, "unit": "%"},
      {"measurement": "remaining binding at 10 µM", "setting": "CDKL3", "value": 98, "unit": "%"},
      {"measurement": "remaining binding at 10 µM", "setting": "AURKC", "value": 73, "unit": "%"},
      {"measurement": "remaining binding at 10 µM", "setting": "MST3", "value": 100, "unit": "%"},
      {"measurement": "remaining binding at 10 µM", "setting": "EGFR", "value": 100, "unit": "%"},
      {"measurement": "remaining binding at 10 µM", "setting": "EPHA6", "value": 92, "unit": "%"},
      {"measurement": "remaining binding at 10 µM", "setting": "MYLK2", "value": 100, "unit": "%"},
      {"measurement": "remaining binding at 10 µM", "setting": "NDR1", "value": 100, "unit": "%"},
      {"measurement": "remaining binding at 10 µM", "setting": "MAP3K1", "value": 100, "unit": "%"},
      {"measurement": "remaining binding at 10 µM", "setting": "PCTK2", "value": 97, "unit": "%"},
      {"measurement": "remaining binding at 10 µM", "setting": "DYRK1a", "value": 100, "unit": "%"},
      {"measurement": "remaining binding at 10 µM", "setting": "ZAK", "value": 100, "unit": "%"},
      {"measurement": "remaining binding at 10 µM", "setting": "FGR", "value": 100, "unit": "%"},
      {"measurement": "remaining binding at 10 µM", "setting": "[1]", "value": 85, "unit": "%"},
      {"measurement": "remaining binding at 10 µM", "setting": "WEE1", "value": 100, "unit": "%"},
      {"measurement": "remaining binding at 10 µM", "setting": "p38-alpha", "value": 88, "unit": "%"},
      {"measurement": "remaining binding at 10 µM", "setting": "PRP4", "value": 100, "unit": "%"},
      {"measurement": "remaining binding at 10 µM", "setting": "SgK085", "value": 100, "unit": "%"},
      {"measurement": "remaining binding at 10 µM", "setting": "EPHA1", "value": 91, "unit": "%"},
      {"measurement": "remaining binding at 10 µM", "setting": "TGFBR1", "value": 100, "unit": "%"},
      {"measurement": "remaining binding at 10 µM", "setting": "PAK2", "value": 100, "unit": "%"},
      {"measurement": "remaining binding at 10 µM", "setting": "DAPK1", "value": 100, "unit": "%"},
      {"measurement": "remaining binding at 10 µM", "setting": "PIK3CA(E542K)", "value": 100, "unit": "%"},
      {"measurement": "remaining binding at 10 µM", "setting": "ADCK3", "value": 100, "unit": "%"},
      {"measurement": "remaining binding at 10 µM", "setting": "MAP3K15", "value": 100, "unit": "%"},
      {"measurement": "remaining binding at 10 µM", "setting": "YANK2", "value": 99, "unit": "%"},
      {"measurement": "remaining binding at 10 µM", "setting": "PRKD1", "value": 65, "unit": "%"},
      {"measurement": "remaining binding at 10 µM", "setting": "PIK3CA(E545K)", "value": 100, "unit": "%"},
      {"measurement": "remaining binding at 10 µM", "setting": "PRKCE", "value": 100, "unit": "%"},
      {"measurement": "remaining binding at 10 µM", "setting": "ROCK1", "value": 100, "unit": "%"}
    ]}
  ]
}
